{"source": "patent US20260146232A1", "about": "“METHODS FOR PROMOTING HOMING AND ENGRAFTMENT OF HEMATOPOIETIC STEM CELLS” (The Trustees of Indiana University, priority 2022, published 2026)", "key": {"CXCR4 [1]": {"tested_on": "CXCR4", "test": "CXCR4 RNA level in human CB CD34+ cells", "format": "cell-based", "conditions": "YTHDF2 knockdown by siRNA", "experimental": "(§1) RNA extraction and real-time PCR. After cells were harvested by FACS, RNA was extracted by a RNeasy Mini Kit following manufacturer's protocol (Qiagen, 74106). Total RNA was reverse-transcribed by use of Superscript III kit (ThermoFisher, 18080093). Quantitative real-time PCR reactions were performed by SYBR Green PCR Master Mix (Thermo Fisher, Florence, KY, USA) and an Agilent Mx3000P QPCR System. Expression of housekeeping gene GAPDH was used as an internal control. Data are shown as relative mRNA level normalized to levels in vehicle control, set to 1. SEQ ID NO: 1-16 are the primer sequences utilized."}, "m6A labelled CXCR4": {"tested_on": "m6A labelled CXCR4", "test": "m6A enrichment on CXCR4 (m6A IP combined with RT-qPCR)", "format": "cell-based, human", "experimental": "M6A-RNA Immunoprecipitation. MeRIP analysis was used as previously described^15. Briefly, the total RNAs were extracted, and then RNA concentration was adjusted to 1 μg/μl. RNA was fragmented into ˜100 nt size and these RNA were immunoprecipitated with the anti-m6A antibody according to the standard protocol of the Magna MeRIP m6A Kit (Merck Millipore, 17-10499). M6A enrichment was determined by qPCR analysis."}, "CXCR4 [2]": {"tested_on": "CXCR4", "test": "Surface CXCR4 protein level (MFI) by flow cytometry", "format": "cell-based, human", "conditions": "for CXCR4 protein level: siRNA knockdown", "from_the_text": "(§2) Human CD34^+ CB cell collection and culture. Umbilical CB units were supplied by Cleveland Cord Blood Bank and CordUse, Orlando, FL, USA. All studies were approved by the institutional review board of the IUSM. Mononuclear cells were isolated by density gradient centrifugation and CD34^+ cells were isolated by immunomagnetic selection kit (Miltenyi Biotec, 130-046-702). […] For molecular compound treatment, all reagents were ordered from Cayman Chemical (Ann Arbor, MI, USA). Briefly, molecular compounds were added in the initiation of human CB CD34^+ cells culture, the time and concentration of each molecular compound for cell treatment was shown in figure legends.\nFlow cytometry. Fresh or cultured CB cells were sorted for different phenotypes by using the following antibodies. Antibodies were used to detect CD34 (BV786, BD Biosciences, 744741), CD34 (FITC, BD Biosciences, 340668), CD45RA (Taxe-red, BD Biosciences, 562298), CD90 (BV421, BD Biosciences, 562556), CD49f (cy5.5, BD Biosciences, 562495), CD38 (PE, BD Biosciences, 560981). CD3 (BV421, BD Biosciences, 562427), CD33 (PE, BD Biosciences, 555450), CD19 (PE, BD Biosciences, 555413), CXCR4 (APC, BD Biosciences, 555976) and CD45 (APC, BD Biosciences, 555485). Gating strategy of phenotypic HSCs were shown in supplementary FIG. 2B."}, "human CB CD34+ cells [3]": {"tested_on": "human CB CD34+ cells", "test": "Homing assay of treated human CB CD34+ cells in NSG mice", "format": "in vivo", "conditions": "500,000 cells", "experimental": "Homing assay. Homing of human CB CD34^+ cells was evaluated in NSG mice. Molecular compounds treated or siRNA transfected human CB CD34+ cells (500,000 for each mouse) were intravenously injected into sub-lethally irradiated (350 cGy) NSG mice. After 24 h, these recipient mice were sacrificed, BM cells from each mouse were collected. Cells were stained with anti-human CD45 antibody, then resuspended in 1% formaldehyde buffer. Flow cytometry analysis was performed to determine the percentage of human CD45^+ cells. BM cells from non-transplanted NSG mice served as negative controls."}, "human CB CD34+ cells [4]": {"tested_on": "human CB CD34+ cells", "test": "Chemotaxis (transwell migration) assay toward SDF-1, CB CD34+ cells", "format": "cell-based", "experimental": "(§3) Chemotaxis assay. Chemotaxis assays were performed in Costar 24-well trans-well plates with 6.5 mm diameter inserts with 5.0 μm pores (Corning, NY, USA). Briefly, 650 μL of IMDM medium (37° C.) that contained 0.5% bovine serum albumin (Sigma-Aldrich) and SDF-1 (0, 50 ng/mL) was added to the bottom well. Cells were suspended at 1×10^5 cells/100 μL in IMDM medium and loaded to the upper chamber of the trans-well. Trans-well plates were placed in a 37° C. incubator with 95% humidity and 5% CO2 for 4 hours. Percent migration was measured using flow cytometry with number of cells in the bottom chamber divided by number of cells placed in the upper chamber. To calculate the percent migration of CB HSCs, phenotypic HSCs was determined by surface staining and flow cytometry analysis. Human CB HSC chemotaxis was calculated as number of HSCs in the bottom chamber divided by number of HSCs loaded in the upper chamber. For AMD3100 administration, cells were treated with 5 μg/mL AMD3100 (239820, Sigma-Aldrich) for 30 min right before the chemotaxis assay."}, "YTHDF2 and CXCR4": {"tested_on": "YTHDF2 and CXCR4", "test": "YTHDF2 binding level of CXCR4 (YTHDF2 RIP combined with RT-qPCR)", "format": "cell-based, human", "experimental": "RNA immunoprecipitation. RNA immunoprecipitation was performed as previously described^14. Briefly, 0.5-1×10^6 collected human CD34^+ cells were lysed in buffer A (20 mM Tris-Cl, pH 8.0; 100 mM NaCl, 1 mM EDTA, 0.5% NP-40, protease and RNase inhibitors) for 20 min at 4° C. After centrifugation for 5 min, 1/10th volume of cell lysate was saved as input. Anti-YTHDF2 (Abcam, ab220163) was prebound to the protein A/G beads and then reacted with the rest of the cell lysate overnight at 4° C. After elution from the beads, the RNA samples were precipitated with ethanol and dissolved in RNase-free water. RNAs were further purified with RNA Clean and Concentrator-5 (Zymo, R1013). The relative CXCR4 enrichment was determined by calculating the Ct values of the RIP sample relative to the input sample. Expression of non-m6a housekeeping gene ACTB was used as an internal control. Data are shown as relative binding level normalized to levels in sh-Control group, set to 1."}, "[5]": {"tested_on": "phenotypic HSC (CD34+ CD38- CD45RA- CD90+ CD49f+)", "test": "Chemotaxis (transwell migration) assay toward SDF-1, phenotypic HSCs", "format": "cell-based, human", "experimental": "as §3"}, "human CB CD34+ cells [6]": {"tested_on": "human CB CD34+ cells", "test": "Long-term engraftment / limiting dilution analysis (LDA) in NSG mice", "format": "in vivo", "experimental": "Limiting dilution analysis (LDA). Frequency of human SCID repopulating cells (SRCs) was determined by LDA as reported before. Increasing doses of GFP overexpressing CD34^+ cells (2500, 5000 or 10000 cells) were intravenously injected into sublethally irradiated NSG recipient mice (350 cGy; 137Cs source, single dose). Four months after transplantation, the percentage of GFP^+ human CD45^+ cell chimerism was analyzed by immunostaining and flow cytometry. For long-term engraftment assays that assess the self-renewal capacity of HSC, 3×10^6 BM cells from primary recipients of the 10000-cell group were intravenously transplanted into secondary sub-lethally irradiated NSG recipient mice."}, "YTHDF2": {"tested_on": "YTHDF2", "test": "Relative YTHDF2 expression level in human CB CD34+ cells", "format": "cell-based", "conditions": "siRNA 2 μM electroporated into human CB CD34+ cells", "from_the_text": "as §2\nas §1, with “1.” for “1. SEQ ID NO: 1-16 are the primer sequences utilized.”"}, "CB CD34+ cells": {"tested_on": "CB CD34+ cells", "test": "Colony-forming unit (CFU) assay", "format": "cell-based, human", "conditions": "AGII-treated CB CD34+ cells"}, "FTO": {"tested_on": "FTO", "test": "Relative FTO expression level by realtime PCR", "format": "cell-based", "conditions": "AGII 4 μM, 20 hours, human CB CD34+ cells", "experimental": "Human CD34^+ CB cell collection and culture. Umbilical CB units were supplied by Cleveland Cord Blood Bank and CordUse, Orlando, FL, USA. All studies were approved by the institutional review board of the IUSM. Mononuclear cells were isolated by density gradient centrifugation and CD34^+ cells were isolated by immunomagnetic selection kit (Miltenyi Biotec, 130-046-702). The purity of human CD34^+ CB cells was over 90% and the cells were cultured in StemSpanII serum-free medium ([…] Technologies, 09650) supplemented with 100 ng/mL stem cell factor (SCF), 100 ng/mL FMS-like tyrosine kinase 3 ligand (Flt3L) and 100 ng/mL thrombopoietin (TPO). For molecular compound treatment, all reagents were ordered from Cayman Chemical (Ann Arbor, MI, USA). Briefly, molecular compounds were added in the initiation of human CB CD34^+ cells culture, the time and concentration of each molecular compound for cell treatment was shown in figure legends.\nas §1, with “Expression of housekeeping gene GAPDH was used as an internal control. Data are shown as relative mRNA level normalized to levels in vehicle control, set to 1. SEQ ID NO: 1-16 are the primer sequences utilized.” left out"}, "[7]": {"conditions": "AGII-treated human CB CD34+ cells"}}, "data": [{"substance": "5′-TTGGCTATTGGGAACGTCCTT-3′ (partner strand not given here) [siRNA]", "values": [{"measurement": "RNA level of CXCR4", "setting": "CXCR4 [1]", "result": "significantly upregulated"}, {"measurement": "expression level of m6A labelled CXCR4", "setting": "m6A labelled CXCR4; YTHDF2 knockdown by siRNA", "result": "greatly increased"}, {"measurement": "CXCR4 protein level", "setting": "CXCR4 [2]; HSCs (CD34+ CD38- CD45RA- CD49f+ CD90+)", "result": "notably upregulated"}, {"measurement": "CXCR4 protein level", "setting": "CXCR4 [2]; human CB CD34+ cells", "result": "notably upregulated"}, {"measurement": "human CB CD34+ cell homing in NSG mice", "setting": "human CB CD34+ cells [3]; siRNA transfected, 24 hours", "result": "enhanced"}, {"measurement": "migration of CB CD34+ cells to SDF-1", "setting": "human CB CD34+ cells [4]; siRNA transfected cells", "result": "significant migration"}, {"measurement": "binding level of YTHDF2 and CXCR4", "setting": "YTHDF2 and CXCR4; YTHDF2 knockdown by siRNA", "result": "significantly decreased"}, {"measurement": "migration to SDF-1 in the HSC population", "setting": "[5]; siRNA transfected cells, SDF-1 50 ng/mL", "result": "Enhanced migration"}, {"measurement": "engraftment in secondary NSG mice", "setting": "human CB CD34+ cells [6]; BM cells from siRNA transfected group", "result": "enhanced engraftment"}, {"measurement": "increase in number of functionally detectable SRCs compared with control", "setting": "human CB CD34+ cells [6]; siRNA transfected group", "result": "~4", "unit": "fold"}, {"measurement": "SRC frequency (Poisson distribution analysis)", "setting": "human CB CD34+ cells [6]; siRNA transfected group, control 1/2439", "result": "1/667"}, {"measurement": "number of SRCs", "setting": "human CB CD34+ cells [6]; siRNA transfected group, control 410", "result": 1478, "unit": "SRCs in 1×10^6 cells"}, {"measurement": "human myeloid and B-cell chimerism", "setting": "human CB CD34+ cells [6]; siRNA transfected, BM 4 months", "result": "significantly increased"}, {"measurement": "engraftment vs control group", "setting": "human CB CD34+ cells [6]; siRNA transfected, PB at 2 and 4 months, BM at 4 months", "result": "enhanced engraftment"}, {"measurement": "YTHDF2 expression at the RNA and protein level", "setting": "YTHDF2", "result": "efficiently downregulated"}]}, {"substance": "Angiotensin II [AGII, peptide hormone of the RAAS system]", "values": [{"measurement": "relative m6A labeled CXCR4 level", "setting": "m6A labelled CXCR4; [7]", "result": "decreased"}, {"measurement": "protein level of CXCR4", "setting": "CXCR4 [2]; AGII-treated vs vehicle", "result": "upregulates"}, {"measurement": "homing to mouse BM", "setting": "human CB CD34+ cells [3]; 20 hours AGII treatment, 24 h after transplantation", "result": "dramatically promoted"}, {"measurement": "human CB CD34+ cell migration toward graded doses of SDF-1", "setting": "human CB CD34+ cells [4]; AGII-treated cells", "result": "greatly enhanced"}, {"measurement": "binding between YTHDF2 and CXCR4", "setting": "YTHDF2 and CXCR4; [7]", "result": "decreased"}, {"measurement": "chemotaxis to SDF-1 of HSCs", "setting": "[5]; AGII-treated cells", "result": "greatly enhanced"}, {"measurement": "engraftment in NSG recipients vs control", "setting": "human CB CD34+ cells [6]; AGII-treated cells, 10,000 cells, PB and BM", "result": "significantly increased"}, {"measurement": "human myeloid and lymphoid cell chimerism", "setting": "human CB CD34+ cells [6]; AGII-treated cells, BM 4 months", "result": "increased"}, {"measurement": "SRC frequency (Poisson distribution analysis)", "setting": "human CB CD34+ cells [6]; AGII-treated cells, control 1/3984", "result": "1/1280"}, {"measurement": "number of SRCs", "setting": "human CB CD34+ cells [6]; AGII-treated cells, control 251", "result": 781, "unit": "SRCs"}, {"measurement": "engraftment in secondary transplantation vs control", "setting": "human CB CD34+ cells [6]; AGII-treated cells, secondary NSG mice at 4 months", "result": "enhanced engraftment"}, {"measurement": "colony output vs vehicle", "setting": "CB CD34+ cells", "result": "no significant difference"}, {"measurement": "FTO expression", "setting": "FTO", "result": "significantly upregulated"}]}]}
